Laboratory results from patent US12239134B2, “Plant antimicrobial compositions including an emulsifier and/or ozone and methods of use” (Arizona Board of Regents on Behalf of The University of …, priority 2018, dated 2025).
Values joined by “and” are separate entries in the source; they are usually repeats but may differ in a detail not shown here. Equal entries are not always repeated.

Legend:
[1] = tested on: Escherichia coli K-12 ATCC 25253; type: cell-based
[2] = tested on: Salmonella Newport; assay: Biofilm formation on food contact surface coupons, direct plating; type: cell-based, Salmonella enterica; conditions: two-minute treatment
Experimental: A protocol based on direct plating was also evaluated for testing the biofilm formation by Salmonella or L. monocytogenes. Biofilms were formed on three different food contact surface coupons (HDPE, Buna-N rubber, and 316 stainless steel) for up to 3 days in 35 mm mini-petri dishes. Biofilms were formed using a 1:10 diluted TSB solution (10 mL) with either S. enterica or L. monocytogenes inoculum (100 μL). The diluted TSB was changed every 16-18 hours with new 1:10 diluted TSB (10 mL). Coupons were removed for sampling and enumeration of strongly attached bacteria at three different time points (Day 0, 1, and 3). The coupons were rinsed with deionized water five times to remove planktonic cells. Then the coupons were immersed in 10 mL of BPW. The coupons were sonicated for 2 minutes using different settings (Tables 11 and 12) for each organism. After sonication, the solution was serially diluted and plated on Tryptic Soy Agar (TSA). Plates were incubated at 37° C. for 24-48 hours. The colonies were counted and the colony forming units were determined for the various sonication settings, so that the appropriate setting with the most recovery could be determined. […] These settings were used in further experiments to recover the bacterial cells from coupons during sampling and enumeration (by spread plating) of the bacteria in biofilms.
The reduction in bacterial biofilm formation was also tested using a direct plating method. Biofilms were formed on six different food contact surface coupons (HDPE, Buna-N rubber, PC, PVC, and stainless steel 304 and 316) in separate 35 mm mini-petri dishes and evaluated at three different time points (Day 0, 1, and 3). Biofilms were formed using a 1:10 diluted TSB solution (10 mL) with either S. enterica or L. monocytogenes inoculum (100 μL). The coupons were also washed and treated with antimicrobial solutions containing the plant-based emulsifier and the essential oil/plant extracts at various concentrations. The diluted TSB was changed every 16-18 hours with new 1:10 diluted TSB (10 mL). The coupons were rinsed in the antimicrobial solution before adding them to the petri dishes containing the fresh, diluted TSB. After their specific time points, coupons were removed aseptically using sterile forceps from the petri dish. The coupons were rinsed by submerging in 25 mL of sterile deionized H2O and swirled five times to remove planktonic cells. After rinsing, they were placed into a new petri dish immersed in 10 mL of BPW. The coupons were sonicated for 2 minutes on ice using different settings for each organism. After sonication, the sonicated solution was serially diluted using 0.1% peptone water and spread plated on TSA in duplicate. Plates were incubated overnight at 37° C. for 24-48 hours, after which, the colonies were counted, to establish the efficacy of the antimicrobial solutions (Tables 17-25).

OO [3% hydrogen peroxide, hydrogen peroxide]
Bacterial reductions on spinach samples after sanitizer treatments [1]: 0.8-1.2 Log CFU/g and 1.0-1.3 Log CFU/g
log reduction of E. coli K-12 on spinach [1]: 0.8-1.2 log and 1.0-1.3 log

O=CC=Cc1ccccc1 [Cinnamaldehyde, cinnamaldehyde]
Survivors of Salmonella Newport on food contact surface ([2]; 0.5% with 0.0001% saponin microemulsion, Day 0, 304 SS): 4.31 Log CFU/mL
Survivors of Salmonella Newport on food contact surface ([2]; 0.5% with 0.0001% saponin microemulsion, Day 0, 316 SS): 4.30 Log CFU/mL
Survivors of Salmonella Newport on food contact surface ([2]; 0.5% with 0.0001% saponin microemulsion, Day 0, Buna N): 4.23 Log CFU/mL
Survivors of Salmonella Newport on food contact surface ([2]; 0.5% with 0.0001% saponin microemulsion, Day 0, HDPE): 4.27 Log CFU/mL
Survivors of Salmonella Newport on food contact surface ([2]; 0.5% with 0.0001% saponin microemulsion, Day 0, PC): 4.06 Log CFU/mL
Survivors of Salmonella Newport on food contact surface ([2]; 0.5% with 0.0001% saponin microemulsion, Day 0, PVC): 3.93 Log CFU/mL
Survivors of Salmonella Newport on food contact surface ([2]; 0.5% with 0.0001% saponin microemulsion, Day 1, 304 SS): 4.45 Log CFU/mL
Survivors of Salmonella Newport on food contact surface ([2]; 0.5% with 0.0001% saponin microemulsion, Day 1, 316 SS): 4.48 Log CFU/mL
Survivors of Salmonella Newport on food contact surface ([2]; 0.5% with 0.0001% saponin microemulsion, Day 1, Buna N): 4.87 Log CFU/mL
Survivors of Salmonella Newport on food contact surface ([2]; 0.5% with 0.0001% saponin microemulsion, Day 1, HDPE): 4.24 Log CFU/mL
Survivors of Salmonella Newport on food contact surface ([2]; 0.5% with 0.0001% saponin microemulsion, Day 1, PC): 4.20 Log CFU/mL
Survivors of Salmonella Newport on food contact surface ([2]; 0.5% with 0.0001% saponin microemulsion, Day 1, PVC): 4.36 Log CFU/mL
Survivors of Salmonella Newport on food contact surface ([2]; 0.5% with 0.0001% saponin microemulsion, Day 3, 304 SS): 4.39 Log CFU/mL
Survivors of Salmonella Newport on food contact surface ([2]; 0.5% with 0.0001% saponin microemulsion, Day 3, 316 SS): 4.26 Log CFU/mL
Survivors of Salmonella Newport on food contact surface ([2]; 0.5% with 0.0001% saponin microemulsion, Day 3, Buna N): 4.34 Log CFU/mL
Survivors of Salmonella Newport on food contact surface ([2]; 0.5% with 0.0001% saponin microemulsion, Day 3, HDPE): 3.24 Log CFU/mL
Survivors of Salmonella Newport on food contact surface ([2]; 0.5% with 0.0001% saponin microemulsion, Day 3, PC): 3.75 Log CFU/mL
Survivors of Salmonella Newport on food contact surface ([2]; 0.5% with 0.0001% saponin microemulsion, Day 3, PVC): 4.21 Log CFU/mL
Survivors of Salmonella Newport on food contact surface ([2]; 0.7% with 0.0001% saponin microemulsion, Day 0, 304 SS): 4.0 Log CFU/mL
Survivors of Salmonella Newport on food contact surface ([2]; 0.7% with 0.0001% saponin microemulsion, Day 0, 316 SS): 4.68 Log CFU/mL
Survivors of Salmonella Newport on food contact surface ([2]; 0.7% with 0.0001% saponin microemulsion, Day 0, Buna N): 4.08 Log CFU/mL
Survivors of Salmonella Newport on food contact surface ([2]; 0.7% with 0.0001% saponin microemulsion, Day 0, HDPE): 4.42 Log CFU/mL
Survivors of Salmonella Newport on food contact surface ([2]; 0.7% with 0.0001% saponin microemulsion, Day 0, PC): 4.11 Log CFU/mL
Survivors of Salmonella Newport on food contact surface ([2]; 0.7% with 0.0001% saponin microemulsion, Day 0, PVC): <1 Log CFU/mL
Survivors of Salmonella Newport on food contact surface ([2]; 0.7% with 0.0001% saponin microemulsion, Day 1, 304 SS): 3.68 Log CFU/mL
Survivors of Salmonella Newport on food contact surface ([2]; 0.7% with 0.0001% saponin microemulsion, Day 1, 316 SS): 3.0 Log CFU/mL
Survivors of Salmonella Newport on food contact surface ([2]; 0.7% with 0.0001% saponin microemulsion, Day 1, Buna N): 3.24 Log CFU/mL
Survivors of Salmonella Newport on food contact surface ([2]; 0.7% with 0.0001% saponin microemulsion, Day 1, HDPE): <1 Log CFU/mL
Survivors of Salmonella Newport on food contact surface ([2]; 0.7% with 0.0001% saponin microemulsion, Day 1, PC): 3.29 Log CFU/mL
Survivors of Salmonella Newport on food contact surface ([2]; 0.7% with 0.0001% saponin microemulsion, Day 1, PVC): <1 Log CFU/mL
Survivors of Salmonella Newport on food contact surface ([2]; 0.7% with 0.0001% saponin microemulsion, Day 3, 304 SS): <1 Log CFU/mL
Survivors of Salmonella Newport on food contact surface ([2]; 0.7% with 0.0001% saponin microemulsion, Day 3, 316 SS): <1 Log CFU/mL
Survivors of Salmonella Newport on food contact surface ([2]; 0.7% with 0.0001% saponin microemulsion, Day 3, Buna N): <1 Log CFU/mL
Survivors of Salmonella Newport on food contact surface ([2]; 0.7% with 0.0001% saponin microemulsion, Day 3, HDPE): <1 Log CFU/mL
Survivors of Salmonella Newport on food contact surface ([2]; 0.7% with 0.0001% saponin microemulsion, Day 3, PC): <1 Log CFU/mL
Survivors of Salmonella Newport on food contact surface ([2]; 0.7% with 0.0001% saponin microemulsion, Day 3, PVC): <1 Log CFU/mL
Survivors of Salmonella Newport on food contact surface ([2]; 1% with 0.0001% saponin microemulsion, Day 0, 304 SS): <1 Log CFU/mL
Survivors of Salmonella Newport on food contact surface ([2]; 1% with 0.0001% saponin microemulsion, Day 0, 316 SS): <1 Log CFU/mL
Survivors of Salmonella Newport on food contact surface ([2]; 1% with 0.0001% saponin microemulsion, Day 0, Buna N): <1 Log CFU/mL
Survivors of Salmonella Newport on food contact surface ([2]; 1% with 0.0001% saponin microemulsion, Day 0, HDPE): <1 Log CFU/mL
Survivors of Salmonella Newport on food contact surface ([2]; 1% with 0.0001% saponin microemulsion, Day 0, PC): <1 Log CFU/mL
Survivors of Salmonella Newport on food contact surface ([2]; 1% with 0.0001% saponin microemulsion, Day 0, PVC): <1 Log CFU/mL
Survivors of Salmonella Newport on food contact surface ([2]; 1% with 0.0001% saponin microemulsion, Day 1, 304 SS): <1 Log CFU/mL
Survivors of Salmonella Newport on food contact surface ([2]; 1% with 0.0001% saponin microemulsion, Day 1, 316 SS): <1 Log CFU/mL
Survivors of Salmonella Newport on food contact surface ([2]; 1% with 0.0001% saponin microemulsion, Day 1, Buna N): <1 Log CFU/mL
Survivors of Salmonella Newport on food contact surface ([2]; 1% with 0.0001% saponin microemulsion, Day 1, HDPE): <1 Log CFU/mL
Survivors of Salmonella Newport on food contact surface ([2]; 1% with 0.0001% saponin microemulsion, Day 1, PC): <1 Log CFU/mL
Survivors of Salmonella Newport on food contact surface ([2]; 1% with 0.0001% saponin microemulsion, Day 1, PVC): <1 Log CFU/mL
Survivors of Salmonella Newport on food contact surface ([2]; 1% with 0.0001% saponin microemulsion, Day 3, 304 SS): <1 Log CFU/mL
Survivors of Salmonella Newport on food contact surface ([2]; 1% with 0.0001% saponin microemulsion, Day 3, 316 SS): <1 Log CFU/mL
Survivors of Salmonella Newport on food contact surface ([2]; 1% with 0.0001% saponin microemulsion, Day 3, Buna N): <1 Log CFU/mL
Survivors of Salmonella Newport on food contact surface ([2]; 1% with 0.0001% saponin microemulsion, Day 3, HDPE): <1 Log CFU/mL
Survivors of Salmonella Newport on food contact surface ([2]; 1% with 0.0001% saponin microemulsion, Day 3, PC): <1 Log CFU/mL
Survivors of Salmonella Newport on food contact surface ([2]; 1% with 0.0001% saponin microemulsion, Day 3, PVC): <1 Log CFU/mL
